# Experimental data published in US12708116B2, “Herbicidal compositions comprising 2,4-D” (BASF SE, priority 2023, dated 2026).
# Tests used:
# Test in all cases: Post-emergence application in field trials
# AMARE = format: in vivo, Amaranthus retroflexus; settings: 8 DAT; g ai/ha A-1 25, B-5 1066; growth stage 19; height 10-20 cm; water volume 140 l/ha
# AMATU = format: in vivo, Amaranthus tuberculatos; settings: 8 DAT; g ai/ha A-1 12.5, B-5 1066; growth stage 19; height 10-20 cm; water volume 140 l/ha
# PORPI = format: in vivo; settings: 8 DAT; g ai/ha A-1 25, B-5 1066; height 2-8 cm; water volume 140 l/ha
# ECHCG = format: in vivo, Echinochloa crus-galli
# SETVI = format: in vivo, Setaria viridis; settings: 15 DAT; g ai/ha A-1 12.5, B-5 1066, C-10 840; growth stage 13-19; height 2-18 cm; water volume 140 l/ha
# GLXMA = format: in vivo, Glycine max; settings: Example 4; 21 DAT; g ai/ha A-1 12.5, B-5 1066; growth stage 13; height 5-8 cm
# AMAPA = system: AMAPA
# DIGSA = system: DIGSA
# CYPES = settings: 21 DAT, water volume 140 l/ha
# DATST = system: DATST
# ZEAMX = settings: growth stage 15-16
# SETVE = settings: growth stage 21-23
# HORVW = settings: growth stage 23-29, height 20-25 cm
structure (smiles),measurement,setting,value
"CCOC(=O)COc1ccccc1Oc1nc(-n2c(=O)cc(C(F)(F)F)n(C)c2=O)c(F)cc1Cl [A-1, ethyl 2-[2-[[3-chloro-5-fluoro-6-[3-methyl-2,6-dioxo-4-(trifluoromethyl)pyrimidin-1-yl]-2-pyridyl]oxy]phenoxy]acetate]",% Herbicidal activity,AMARE,88%
same,% Herbicidal activity,AMATU,88%
same,% Herbicidal activity,PORPI,90%
same,% Herbicidal activity,"ECHCG; 13 DAT, g ai/ha A-1 12.5, B-5 1066, C-10 840, growth stage 21-26, height 15-30 cm, water volume 187 l/ha",23%
same,% Herbicidal activity,"ECHCG; 13 DAT, g ai/ha A-1 25, B-5 1066, C-10 840, growth stage 21-26, height 15-30 cm, water volume 187 l/ha",20%
same,% Herbicidal activity,"ECHCG; 13 DAT, g ai/ha A-1 50, B-5 1066, C-10 840, growth stage 21-26, height 15-30 cm, water volume 187 l/ha",23%
same,% Herbicidal activity,"ECHCG; Example 4, 21 DAT, g ai/ha A-1 12.5, B-5 1066, growth stage 23-30, height 15-20 cm",30%
same,% Herbicidal activity,"ECHCG; Example 6, 7 DAT, g ai/ha A-1 12.5, B-5 1066, C-11 400, growth stage 23-30, height 15-20 cm",20%
same,% Herbicidal activity,"ECHCG; Example 6, 28 DAT, g ai/ha A-1 12.5, B-5 1066, C-11 400, growth stage 23-30, height 15-20 cm",20%
same,% Herbicidal activity,"ECHCG; Example 7, 28 DAT, g ai/ha A-1 12.5, B-4 1066, C-11 400, growth stage 23-30, height 15-20 cm",20%
same,% Herbicidal activity,"ECHCG; Example 8, 7 DAT, g ai/ha A-1 12.5, B-5 1066, C-12 252, growth stage 23-30, height 15-20 cm",20%
same,% Herbicidal activity,"ECHCG; Example 8, 21 DAT, g ai/ha A-1 12.5, B-5 1066, C-12 252, growth stage 23-30, height 15-20 cm",30%
same,% Herbicidal activity,"ECHCG; Example 8, 28 DAT, g ai/ha A-1 12.5, B-5 1066, C-12 252, growth stage 23-30, height 15-20 cm",20%
same,% Herbicidal activity,"ECHCG; Example 9, 28 DAT, g ai/ha A-1 12.5, B-4 1066, C-12 252, growth stage 23-30, height 15-20 cm",20%
same,% Herbicidal activity,"ECHCG; Example 10, 21 DAT, g ai/ha A-1 12.5, B-5 1066, C-4 12.5, growth stage 23-30, height 15-20 cm",30%
same,% Herbicidal activity,SETVI,68%
same,% Herbicidal activity,GLXMA,90%
same,% Herbicidal activity,"AMAPA; 13 DAT, g ai/ha A-1 25, B-5 1066, growth stage 16, height 15-25 cm, water volume 187 l/ha",58%
same,% Herbicidal activity,"AMAPA; 14 DAT, g ai/ha A-1 12.5, B-5 1066, C-10 840, growth stage 12-24, height 5-30 cm, water volume 140 l/ha",73%
same,% Herbicidal activity,"AMAPA; 14 DAT, g ai/ha A-1 25, B-5 1066, C-10 840, growth stage 12-24, height 5-30 cm, water volume 140 l/ha",82%
same,% Herbicidal activity,"AMAPA; 19 DAT, g ai/ha A-1 12.5, B-5 1066, growth stage 16, height 15-25 cm, water volume 187 l/ha",40%
same,% Herbicidal activity,"AMAPA; 19 DAT, g ai/ha A-1 25, B-5 1066, growth stage 16, height 15-25 cm, water volume 187 l/ha",42%
same,% Herbicidal activity,"AMAPA; 19 DAT, g ai/ha A-1 50, B-5 1066, growth stage 16, height 15-25 cm, water volume 187 l/ha",52%
same,% Herbicidal activity,"AMAPA; 21 DAT, g ai/ha A-1 12.5, B-5 1066, growth stage 12-28, height 7-20 cm, water volume 140 l/ha",89%
same,% Herbicidal activity,"AMAPA; 21 DAT, g ai/ha A-1 50, B-5 1066, height 5-23 cm, water volume 140 l/ha",74%
same,% Herbicidal activity,"DIGSA; 14 DAT, g ai/ha A-1 12.5, B-5 1066, height 2-8 cm, water volume 140 l/ha",33%
same,% Herbicidal activity,"DIGSA; 14 DAT, g ai/ha A-1 25, B-5 1066, height 2-8 cm, water volume 140 l/ha",33%
same,% Herbicidal activity,"DIGSA; 14 DAT, g ai/ha A-1 50, B-5 1066, height 2-8 cm, water volume 140 l/ha",65%
same,% Herbicidal activity,"DIGSA; 15 DAT, g ai/ha A-1 12.5, B-5 1066, C-10 840, growth stage 13-19, height 2-13 cm, water volume 140 l/ha",68%
same,% Herbicidal activity,"DIGSA; 21 DAT, g ai/ha A-1 12.5, B-5 1066, C-11 655, height 2-8 cm, water volume 140 l/ha",27%
same,% Herbicidal activity,"DIGSA; 21 DAT, g ai/ha A-1 12.5, B-5 1066, height 2-8 cm, water volume 140 l/ha",27%
same,% Herbicidal activity,"DIGSA; 21 DAT, g ai/ha A-1 25, B-5 1066, C-11 655, height 2-8 cm, water volume 140 l/ha",28%
same,% Herbicidal activity,"DIGSA; 21 DAT, g ai/ha A-1 25, B-5 1066, height 2-8 cm, water volume 140 l/ha",28%
same,% Herbicidal activity,"DIGSA; 21 DAT, g ai/ha A-1 50, B-5 1066, C-11 655, height 2-8 cm, water volume 140 l/ha",55%
same,% Herbicidal activity,"DIGSA; 21 DAT, g ai/ha A-1 50, B-5 1066, height 2-8 cm, water volume 140 l/ha",55%
same,% Herbicidal activity,"DIGSA; Example 6, 7 DAT, g ai/ha A-1 12.5, B-5 1066, C-11 400, growth stage 21-22, height 15-20 cm",35%
same,% Herbicidal activity,"DIGSA; Example 6, 21 DAT, g ai/ha A-1 12.5, B-5 1066, C-11 400, growth stage 21-22, height 15-20 cm",35%
same,% Herbicidal activity,"CYPES; g ai/ha A-1 12.5, B-5 1066, C-11 655",20%
same,% Herbicidal activity,"CYPES; g ai/ha A-1 50, B-5 1066, C-11 655",42%
same,% Herbicidal activity,"CYPES; g ai/ha A-1 50, B-5 1066",42%
same,% Herbicidal activity,"DATST; Example 4, 7 DAT, g ai/ha A-1 12.5, B-5 1066",90%
same,% Herbicidal activity,"DATST; Example 6, 21 DAT, g ai/ha A-1 12.5, B-5 1066, C-11 400",90%
same,% Herbicidal activity,"ZEAMX; Example 4, 7 DAT, g ai/ha A-1 18, B-5 1066, height 50-60 cm",85%
same,% Herbicidal activity,"ZEAMX; Example 4, 21 DAT, g ai/ha A-1 12.5, B-5 1066, height 50-60 cm",80%
same,% Herbicidal activity,"ZEAMX; Example 5, 21 DAT, g ai/ha A-1 12.5, B-4 1066, height 50-60 cm",70%
same,% Herbicidal activity,"ZEAMX; Example 6, 7 DAT, g ai/ha A-1 12.5, B-5 1066, C-11 400, height 25-30 cm",40%
same,% Herbicidal activity,"ZEAMX; Example 6, 28 DAT, g ai/ha A-1 12.5, B-5 1066, C-11 400, height 50-60 cm",85%
same,% Herbicidal activity,"ZEAMX; Example 7, 28 DAT, g ai/ha A-1 12.5, B-4 1066, C-11 400, height 50-60 cm",50%
same,% Herbicidal activity,"ZEAMX; Example 8, 28 DAT, g ai/ha A-1 12.5, B-5 1066, C-12 252, height 50-60 cm",85%
same,% Herbicidal activity,"ZEAMX; Example 9, 28 DAT, g ai/ha A-1 12.5, B-4 1066, C-12 252, height 50-60 cm",50%
same,% Herbicidal activity,"ZEAMX; Example 11, 21 DAT, g ai/ha A-1 12.5, B-4 1066, C-4 12.5, height 50-60 cm",70%
same,% Herbicidal activity,"SETVE; Example 4, 21 DAT, g ai/ha A-1 12.5, B-5 1066, height 8-16 cm",65%
same,% Herbicidal activity,"SETVE; Example 6, 7 DAT, g ai/ha A-1 12.5, B-5 1066, C-11 400, height 10-15 cm",75%
same,% Herbicidal activity,"SETVE; Example 6, 21 DAT, g ai/ha A-1 12.5, B-5 1066, C-11 400, height 10-15 cm",55%
same,% Herbicidal activity,"HORVW; Example 4, 21 DAT, g ai/ha A-1 12.5, B-5 1066",60%
same,% Herbicidal activity,"HORVW; Example 5, 7 DAT, g ai/ha A-1 12.5, B-4 1066",60%
same,% Herbicidal activity,"HORVW; Example 6, 28 DAT, g ai/ha A-1 12.5, B-5 1066, C-11 400",60%
same,% Herbicidal activity,"HORVW; Example 7, 28 DAT, g ai/ha A-1 12.5, B-4 1066, C-11 400",90%
same,% Herbicidal activity,"HORVW; Example 8, 21 DAT, g ai/ha A-1 12.5, B-5 1066, C-12 252",80%
same,% Herbicidal activity,"HORVW; Example 9, 21 DAT, g ai/ha A-1 12.5, B-4 1066, C-12 252",80%
same,% Herbicidal activity,"HORVW; Example 10, 21 DAT, g ai/ha A-1 12.5, B-5 1066, C-4 12.5",80%
same,% Herbicidal activity,"HORVW; Example 11, 21 DAT, g ai/ha A-1 12.5, B-4 1066, C-4 12.5",80%
